Experimental data from patent US20030073850A1, “4-Imidazole derivatives of benzyl and restricted benzyl sulfonamides, sulfamides, ureas, carbamates, and amides and their use” (priority 1998, published 2003).
Counter-ions that a name gives are not always drawn. Like-named read-outs stand apart in the source and are kept apart here.

Key:
[1] = biological target: T1, α1d (rat receptor expressed in mouse fibroblasts) (Rattus norvegicus, UniProt P23944); test: Radioligand binding, [3H]-prazosin, α1d
T1 construct: expressed in transfected cells; host or cells: mouse fibroblasts
T1 sequence (P23944 1-561): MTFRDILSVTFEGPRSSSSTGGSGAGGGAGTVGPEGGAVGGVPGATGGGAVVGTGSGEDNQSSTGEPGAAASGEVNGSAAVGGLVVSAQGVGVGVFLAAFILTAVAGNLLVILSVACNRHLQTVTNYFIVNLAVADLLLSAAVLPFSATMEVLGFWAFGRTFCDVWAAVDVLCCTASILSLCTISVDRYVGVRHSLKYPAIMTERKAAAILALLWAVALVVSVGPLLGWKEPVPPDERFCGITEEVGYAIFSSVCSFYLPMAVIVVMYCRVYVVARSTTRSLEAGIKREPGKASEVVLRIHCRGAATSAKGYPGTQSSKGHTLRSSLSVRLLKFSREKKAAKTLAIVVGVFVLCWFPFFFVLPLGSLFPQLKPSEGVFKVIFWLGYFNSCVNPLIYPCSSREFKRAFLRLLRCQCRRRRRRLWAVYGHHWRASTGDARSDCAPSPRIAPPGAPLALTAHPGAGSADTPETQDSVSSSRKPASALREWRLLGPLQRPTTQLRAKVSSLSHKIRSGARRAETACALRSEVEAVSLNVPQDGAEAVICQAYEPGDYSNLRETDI
Protocol: (§1) For purposes of discussing a, adrenoceptor subtypes, the IUPHAR convention of using lower case letters to define molecular clones and upper case letters to indicate pharmacologically defined adrenoceptors has been followed. Compounds of formula I were evaluated in radioligand binding assays specific for α1A (rat submaxillary gland), α1b (hamster receptor expressed in mouse fibroblasts) and α1d (rat receptor expressed in mouse fibroblasts) using [^3H]-prazosin as the radioligand as described in Knepper, et al. J. Pharm.

[2] = biological target: T2, α1b (hamster receptor expressed in mouse fibroblasts) (Mesocricetus auratus, UniProt P18841); test: Radioligand binding, [3H]-prazosin, α1b
T2 construct: expressed in transfected cells; host or cells: mouse fibroblasts
T2 sequence (P18841 1-515): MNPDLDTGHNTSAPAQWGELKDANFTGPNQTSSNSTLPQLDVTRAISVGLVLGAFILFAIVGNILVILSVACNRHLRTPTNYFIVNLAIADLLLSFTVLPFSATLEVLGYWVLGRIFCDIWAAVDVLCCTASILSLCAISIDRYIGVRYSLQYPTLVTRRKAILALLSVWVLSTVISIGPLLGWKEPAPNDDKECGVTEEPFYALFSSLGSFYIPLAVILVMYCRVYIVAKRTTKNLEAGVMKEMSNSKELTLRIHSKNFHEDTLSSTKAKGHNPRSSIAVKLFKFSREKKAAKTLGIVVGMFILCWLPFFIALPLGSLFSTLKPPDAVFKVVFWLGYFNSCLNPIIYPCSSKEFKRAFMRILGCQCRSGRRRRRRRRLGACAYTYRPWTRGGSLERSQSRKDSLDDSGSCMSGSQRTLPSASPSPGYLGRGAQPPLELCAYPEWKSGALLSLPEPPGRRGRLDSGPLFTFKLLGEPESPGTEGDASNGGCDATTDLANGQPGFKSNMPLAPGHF
Protocol: as §1

[3] = biological target: T3, α1A (rat submaxillary gland) (Rattus norvegicus, UniProt P43140); test: Radioligand binding, [3H]-prazosin, α1A
T3 construct: α1A (rat submaxillary gland); from tissue; host or cells: rat submaxillary gland
T3 sequence (P43140 1-466): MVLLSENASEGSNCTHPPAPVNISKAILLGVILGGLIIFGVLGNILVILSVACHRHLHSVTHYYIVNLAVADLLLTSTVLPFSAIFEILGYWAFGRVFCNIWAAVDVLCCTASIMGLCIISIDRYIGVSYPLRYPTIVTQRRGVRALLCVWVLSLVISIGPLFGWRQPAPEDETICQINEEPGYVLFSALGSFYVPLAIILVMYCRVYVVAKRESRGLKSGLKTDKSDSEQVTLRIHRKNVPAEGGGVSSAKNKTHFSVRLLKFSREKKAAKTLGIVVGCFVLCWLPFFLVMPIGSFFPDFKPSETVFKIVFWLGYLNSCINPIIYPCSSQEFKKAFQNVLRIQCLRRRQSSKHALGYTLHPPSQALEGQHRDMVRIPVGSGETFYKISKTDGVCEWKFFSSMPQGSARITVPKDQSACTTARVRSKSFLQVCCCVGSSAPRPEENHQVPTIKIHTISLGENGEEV
Protocol: as §1

anesthetized dogs [4] = test: Mean arterial pressure (MAP) in anesthetized dogs; format: in vivo, dog; conditions: iv dose causing a maximum increase in MAP of 20 mm Hg, anesthetized female Beagle dogs
Source text: (§2) Female Beagle dogs (Marshall Farms, North Rose, N.Y.) greater that 2 years of age and weighing between 12 and 15 kg were used in these studies. At least 2 weeks prior to any agonist dosing, dogs were instrumented for the chronic measurement of arterial blood pressure by implanting a telemetry transducer/transmitter (TA11PA-C40, Data Sciences International, St. Paul, Minn.) into a carotid artery.
(§3) On the test day, dogs fasted since the previous afternoon were pre-anesthetized with thiopental sodium 15 mg/kg i.v. (Pentothal™, Abbott) and intubated. Anesthesia was maintained by allowing the dog to spontaneously breathe a mixture of isoflurane (2.5 to 3 volume %) and oxygen delivered by a Narkomed Standard anesthesia system (North American Drager, Telford, Pa.). An Abbocath-T™ i.v. catheter (18-G, Abbott) was inserted into the cephalic vein for the administration of agonists. A telemetry receiver (RA1310, DataSciences) was placed under the head of each dog and was interfaced to a computerized data acquisition system (Modular Instruments Inc.(MI2), Malvern, Pa.) which allowed for the continuous calibrated recording of arterial blood pressure which was electronically filtered to determine its mean value (MAP).
(§4) From the resulting dose response curve, an ED5 value, for the dose causing a maximum increase in IUP of 5 mm Hg, could be estimated. An ED20 value for the dose causing a maximum increase in MAP of 20 mm Hg could also be estimated. A selectivity ratio of MAP ED20 vs. IUP ED, was calculated.

anesthetized dogs [5] = test: Intraurethral pressure (IUP) in anesthetized dogs; format: in vivo, dog; conditions: iv dose causing a maximum increase in IUP of 5 mm Hg, anesthetized female Beagle dogs
Source text: as §2, §3
Dogs with chronic telemetry implants anesthetized as described above were placed in dorsal recumbency and a balloon catheter was inserted into the urethral orifice and advanced approximately 15 cm until the tip was well inside the bladder. The balloon was then inflated with 1 ml of room air and the catheter slowly withdrawn until resistance (corresponding to the bladder neck) was evident. The balloon was then deflated and the catheter withdrawn additional 2 cm. The balloon was then reinflated and its catheter port connected to a Gould Statham P23Dd pressure transducer interfaced to a computerized data acquisition system (Modular Instruments, Inc., Malvern, Pa.) for the measurement of the intraurethral pressure. Increasing iv doses of test agonists were administered and the maximum effect of each dose on IUP was recorded. The effect of each dose was allowed to return to baseline before the next dose was given.
as §4

[6] = rat receptor expressed in mouse fibroblasts, [3H]-prazosin, read-out: Radioligand Binding Ki α1d (Rat)
[7] = hamster receptor expressed in mouse fibroblasts, [3H]-prazosin, read-out: Radioligand Binding Ki α1b (Hamster)

Structure (SMILES)	melting point [°C]	Ki [1, 6] [µM]	Ki [2, 7] [µM]	Ki [3] [µM]	Ki [1] [µM]	Ki [2] [µM]	also measured
CCS(=O)(=O)Nc1cccc2c1SCCC2c1c[nH]cn1.O=C(O)/C=C\C(=O)O (centres unmarked) [Example 89, N-[4-(1H-imidazol-4-yl)-3,4-dihydro-2H-thiochromen-8-yl]ethanesulfonamide Maleate]	248 to 251	10	10	1.01			
CCS(=O)(=O)Nc1cccc2c1CCCC2c1c[nH]c(C)n1.O=C(O)/C=C\C(=O)O (centres unmarked) [Example 84, N-[5-(2-methyl-1H-imidazol-4-yl)-5,6,7,8-tetrahydro-1-naphthalenyl]ethanesulfonamide, Maleate]	73 to 77	10	10	0.792			
CCS(=O)(=O)Nc1cccc2c1CCCC2c1c[nH]cn1.O=C(O)/C=C\C(=O)O (single isomer, unassigned; (+)) [Example 33, (+)-N-[5-(1H-imidazol-4-yl)-5,6,7,8-tetrahydro-1-naphthalenyl]ethanesulfonamide, Maleate]							Mean MAP ED20 (anesthetized dogs [4]; Maleate): 34.0 nmol/kg
CC(C)(OC(=O)Nc1cccc2c1CCCC2c1c[nH]cn1)C(Cl)(Cl)Cl (centres unmarked) [Example 122, 2,2,2-trichloro-1-dimethylethyl 5-(1H-imidazol-4-yl)-5,6,7,8-tetrahydro-1-naphthalenylcarbamate]				1.03	1.27	10	
CCS(=O)(=O)Nc1cc(C2CCCCC2)cc2c1CCCC2c1c[nH]cn1 (centres unmarked) [Example 101, N-[3-cyclohexyl-5-(1H-imidazol-4-yl)-5,6,7,8-tetrahydro-1-naphthalenyl]ethanesulfonamide]	207 to 209			0.269	0.449	0.886	
COc1ccc(NS(C)(=O)=O)c2c1C(c1c[nH]cn1)CCC2 (centres unmarked) [Example 26, N-[5,6,7,8-tetrahydro-(1H-imidazol-4-yl)-4-methoxy-1-naphthalenyl]methanesulfonamide, Maleate]		10	10				Mean IUP ED5 (anesthetized dogs [5]): 653 nmol/kg
CCS(=O)(=O)Nc1cccc2c1COC2c1c[nH]cn1.O=C(O)/C=C\C(=O)O (centres unmarked) [Example 87, N-[1-(1H-imidazol-4-yl)-1,3-dihydro-2-benzofuran-4-yl]ethanesulfonamide Maleate]	95 to 98			0.936	10	10	
CCS(=O)(=O)Nc1cccc(C(=C(C)C)c2c[nH]cn2)c1 [Example 94, N-{3-[1-(1H-imidazol-4-yl)-2-methyl-1-propenyl]phenyl}ethanesulfonamide]	152 to 155	0.173	1.18	1.94			
O=S(=O)(CC(F)(F)F)Nc1cccc2c1OCCC2c1c[nH]cn1 (single isomer, unassigned) [Example 88, 2,2,2-trifluoro-N-[4-(1H-imidazol-4-yl)-3,4-dihydro-2H-chromen-8-yl]ethanesulfonamide]		10	10	0.573			
CN(C)S(=O)(=O)Nc1cccc2c1CCCC2c1c[nH]cn1 (centres unmarked) [Example 111, N′-[5-(1H-imidazol-4-yl)-5,6,7,8-tetrahydro-1-naphthalenvyl]-N,N-dimethylsulfamide]	208 to 210	1.59	10	0.579			
CS(=O)(=O)Nc1cccc2c1OCCC2c1c[nH]cn1.O=C(O)/C=C\C(=O)O (single isomer, unassigned; (+)) [Example 93, (+) N-[4-(1H-imidazol-4-yl)-3,4-dihydro-2H-chromen-8-yl]methanesulfonamide Maleate]	205 to 208						ED (5 mm Hg) (anesthetized dogs [5]; Canis lupus familiaris, read-out: Mean IUP ED5): 0.038 µmol/kg
Cc1ccc(OC(=O)Nc2cccc3c2CCCC3c2c[nH]cn2)cc1 (centres unmarked) [Example 124, 4-methylphenyl 5-(1H-imidazol-4-yl)-5,6,7,8-tetrahydro-1-naphthalenylcarbamate]				0.451	0.787	1.47	
CC(=O)Nc1cccc2c1CCCC2c1c[nH]cn1.O=C(O)/C=C\C(=O)O (centres unmarked) [Example 16, N-[5,6,7,8-tetrahydro-5-(1H-imidazol-4-yl)-1-naphthalenyl]acetamide, Maleate]	159 to 160						Mean MAP ED20 (anesthetized dogs [4]): 220 nmol/kg
CCS(=O)(=O)Nc1cc(F)cc2c1CCCC2c1c[nH]cn1 (centres unmarked) [Example 131, N-[3-fluoro-5-(1H-imidazol-4-yl)-5,6,7,8-tetrahydro-1-naphthalenyl]ethanesulfonamide]		2.16	10	0.09			
C=C(c1cccc(NS(=O)(=O)CC(F)(F)F)c1)c1c[nH]cn1.O=C(O)/C=C\C(=O)O [Example 91, 2,2,2-trifluoro-N-{3-[1-(1H-imidazol-4-yl)vinyl]phenyl}ethanesulfonamide Maleate]	149 to 153			1.52	10	10	
Cl.Cn1cnc(C2CCCc3c(NS(C)(=O)=O)cccc32)c1 (centres unmarked) [Example 14, N-[5,6,7,8-tetrahydro-5-(1-methyl-1H-imidazol-4-yl)-1-naphthalenyl]methanesulfonamide, Hydrochloride]	130 to 135						Mean MAP ED20 (anesthetized dogs [4]): >1000 nmol/kg
